Measurements: article PMC7900114, “Three-dimensional structure of human cyclooxygenase (hCOX)-1” (Scientific Reports, 2021)

Tests used:
[1] = molecular target: hCOX-1 (Homo sapiens, UniProt P23219); conditions: enzyme specific activity in the presence of arachidonic acid 100 µM and the inhibitor
Procedure: (§1) Functional analysis of ovine and human COX-1 catalytic activity was determined by monitoring O2 consumption by using an Oxytherm electrode unit (Hansatech), in the presence of arachidonic acid and different inhibitors. The instrument is equipped with a Clark-type oxygen electrode to monitor the dissolved oxygen concentration in a sealed measurement chamber over the time. Oxygen consumption was measured at 37 °C directly in a 1000 µL reaction vessel. Briefly, it follows the description of a typical assay: Oxygraph buffer (the opportune volume is adjusted to 1000 µL of final volume according to the volume of the protein), 5 µM hemin (1 µL), 100 µM arachidonic acid (20 µL) and inhibitor (10 µL) at the opportune concentrations.
(§2) Oxygen consumption determination (μmol/ml O2) started after the addition of the ovine or human COX-1/Sf9 sonicated pellet (C = 2.6 mg/ml) to the mixture containing Oxygraph buffer, arachidonic acid and test compounds at the opportune concentrations. Assay mixture was allowed to equilibrate in the reaction vessel at 37 °C for several minutes until steady baseline was recorded. Uninfected Sf9 sonicated cells were used as a negative control. Stock solutions were prepared in a minimum volume of vehicle (DMSO).

[2] = molecular target: T1, oCOX-1 (Ovis aries, UniProt P05979); conditions: enzyme specific activity in the presence of arachidonic acid 100 µM and the inhibitor
T1 sequence (P05979 25-600): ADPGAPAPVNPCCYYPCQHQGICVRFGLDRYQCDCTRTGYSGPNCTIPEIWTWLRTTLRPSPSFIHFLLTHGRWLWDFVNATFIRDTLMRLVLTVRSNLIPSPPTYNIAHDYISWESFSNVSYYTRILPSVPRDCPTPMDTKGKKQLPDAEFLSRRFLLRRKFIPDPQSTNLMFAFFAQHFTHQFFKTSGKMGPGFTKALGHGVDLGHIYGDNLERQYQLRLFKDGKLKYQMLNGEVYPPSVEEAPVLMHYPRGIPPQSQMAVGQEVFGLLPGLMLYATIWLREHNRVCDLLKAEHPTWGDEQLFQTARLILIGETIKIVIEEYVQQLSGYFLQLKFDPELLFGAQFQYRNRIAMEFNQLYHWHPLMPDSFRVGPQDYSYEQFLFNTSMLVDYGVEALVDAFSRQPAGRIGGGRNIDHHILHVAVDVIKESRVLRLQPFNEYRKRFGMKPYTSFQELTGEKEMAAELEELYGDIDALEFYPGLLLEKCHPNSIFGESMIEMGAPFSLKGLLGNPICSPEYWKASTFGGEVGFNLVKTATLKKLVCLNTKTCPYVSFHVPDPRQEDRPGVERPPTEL
Procedure: as §1, §2

Sequence of hCOX-1 (P23219 24-599): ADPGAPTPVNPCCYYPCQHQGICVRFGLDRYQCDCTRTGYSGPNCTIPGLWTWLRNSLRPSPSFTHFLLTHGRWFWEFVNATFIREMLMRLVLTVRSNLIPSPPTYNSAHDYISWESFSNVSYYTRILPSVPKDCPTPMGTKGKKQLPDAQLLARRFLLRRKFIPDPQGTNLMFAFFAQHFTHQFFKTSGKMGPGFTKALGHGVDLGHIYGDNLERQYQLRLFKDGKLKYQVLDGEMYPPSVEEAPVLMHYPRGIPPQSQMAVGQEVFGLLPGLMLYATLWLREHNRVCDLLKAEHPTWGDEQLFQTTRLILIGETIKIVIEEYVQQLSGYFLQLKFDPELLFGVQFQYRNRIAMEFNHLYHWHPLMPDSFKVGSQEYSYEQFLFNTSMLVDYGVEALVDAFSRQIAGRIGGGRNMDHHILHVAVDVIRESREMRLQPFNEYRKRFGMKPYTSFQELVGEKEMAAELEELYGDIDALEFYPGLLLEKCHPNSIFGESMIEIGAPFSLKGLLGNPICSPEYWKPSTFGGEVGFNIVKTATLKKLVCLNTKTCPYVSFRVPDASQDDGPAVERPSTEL

Specific activity hCOX-1 [1]: 4.5 µmol/min/mg
Specific activity oCOX-1 [2]: 3.5 µmol/min/mg
SMILES: COc1ccc(-c2noc(CC(=O)O)c2-c2ccc(OC)cc2)cc1 [mofezolac]
